Laboratory results: patent US11427574B2, “Compounds for treating Rac-GTPase mediated disorder” (Children's Medical Center Corporation, priority 2015, dated 2022)

How the values were obtained:
Test in all cases: Kinase screening
Format in all cases: biochemical
[1] = target: KIT (Homo sapiens, UniProt P10721)
Description: (§1) Compound 1 was tested for its efficacy in inhibiting activities of 40 kinases and binding with 12 GPCRs both as an antagonist and an agonist.

[2] = target: PAK2 (PAK65) (Homo sapiens, UniProt Q13177)
Description: as §1

[3] = target: ABL1 (Homo sapiens, UniProt P00519)
Description: as §1

[4] = target: AKT2 (PKB beta) (Homo sapiens, UniProt P31751)
Description: as §1

[5] = target: FLT3 (Homo sapiens, UniProt P36888)
Description: as §1

[6] = target: CDC42 BPA (MRCKA) (Homo sapiens, UniProt Q5VT25)
Description: as §1

[7] = target: EPHB1 (Homo sapiens, UniProt P54762)
Description: as §1

[8] = target: CDK1/cyclin B (Homo sapiens, UniProt P06493)
Description: as §1

[9] = target: MAPK9 (JNK2) (Homo sapiens, UniProt P45984)
Description: as §1

[10] = target: FRAP1 (mTOR) (Homo sapiens, UniProt P42345)
Description: as §1

[11] = target: PIK3CA/PIK3R1 (p110 alpha/p85 alpha) (Homo sapiens, UniProt P42336)
Description: as §1

[12] = target: PIK3C2A (PI3K-C2 alpha) (Homo sapiens, UniProt O00443)
Description: as §1

[13] = target: AKT1 (PKB alpha) (Homo sapiens, UniProt P31749)
Description: as §1

[14] = target: PAK4 (Homo sapiens, UniProt O96013)
Description: as §1

[15] = target: MAPK8 (JNK1) (Homo sapiens, UniProt P45983)
MAPK8 (JNK1), sequence (P45983 whole entry, species assumed): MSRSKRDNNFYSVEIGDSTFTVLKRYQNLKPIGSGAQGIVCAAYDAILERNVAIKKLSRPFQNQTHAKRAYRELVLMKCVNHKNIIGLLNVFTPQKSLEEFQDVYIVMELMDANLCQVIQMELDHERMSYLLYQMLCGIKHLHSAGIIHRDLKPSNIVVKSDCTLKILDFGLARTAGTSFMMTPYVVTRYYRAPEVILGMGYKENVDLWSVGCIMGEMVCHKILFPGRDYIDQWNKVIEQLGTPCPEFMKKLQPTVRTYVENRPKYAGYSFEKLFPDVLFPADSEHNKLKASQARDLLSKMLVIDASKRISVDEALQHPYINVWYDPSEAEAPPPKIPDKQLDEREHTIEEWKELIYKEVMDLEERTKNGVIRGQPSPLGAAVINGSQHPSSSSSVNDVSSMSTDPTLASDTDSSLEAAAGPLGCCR
Description: as §1

[16] = target: PAK3 (Homo sapiens, UniProt O75914)
Description: as §1

[17] = target: MYLK (MLCK) (Homo sapiens, UniProt Q15746)
Description: as §1

[18] = target: EGFR (ErbB1) (Homo sapiens, UniProt P00533)
EGFR (ErbB1), sequence (P00533 25-1210, species assumed): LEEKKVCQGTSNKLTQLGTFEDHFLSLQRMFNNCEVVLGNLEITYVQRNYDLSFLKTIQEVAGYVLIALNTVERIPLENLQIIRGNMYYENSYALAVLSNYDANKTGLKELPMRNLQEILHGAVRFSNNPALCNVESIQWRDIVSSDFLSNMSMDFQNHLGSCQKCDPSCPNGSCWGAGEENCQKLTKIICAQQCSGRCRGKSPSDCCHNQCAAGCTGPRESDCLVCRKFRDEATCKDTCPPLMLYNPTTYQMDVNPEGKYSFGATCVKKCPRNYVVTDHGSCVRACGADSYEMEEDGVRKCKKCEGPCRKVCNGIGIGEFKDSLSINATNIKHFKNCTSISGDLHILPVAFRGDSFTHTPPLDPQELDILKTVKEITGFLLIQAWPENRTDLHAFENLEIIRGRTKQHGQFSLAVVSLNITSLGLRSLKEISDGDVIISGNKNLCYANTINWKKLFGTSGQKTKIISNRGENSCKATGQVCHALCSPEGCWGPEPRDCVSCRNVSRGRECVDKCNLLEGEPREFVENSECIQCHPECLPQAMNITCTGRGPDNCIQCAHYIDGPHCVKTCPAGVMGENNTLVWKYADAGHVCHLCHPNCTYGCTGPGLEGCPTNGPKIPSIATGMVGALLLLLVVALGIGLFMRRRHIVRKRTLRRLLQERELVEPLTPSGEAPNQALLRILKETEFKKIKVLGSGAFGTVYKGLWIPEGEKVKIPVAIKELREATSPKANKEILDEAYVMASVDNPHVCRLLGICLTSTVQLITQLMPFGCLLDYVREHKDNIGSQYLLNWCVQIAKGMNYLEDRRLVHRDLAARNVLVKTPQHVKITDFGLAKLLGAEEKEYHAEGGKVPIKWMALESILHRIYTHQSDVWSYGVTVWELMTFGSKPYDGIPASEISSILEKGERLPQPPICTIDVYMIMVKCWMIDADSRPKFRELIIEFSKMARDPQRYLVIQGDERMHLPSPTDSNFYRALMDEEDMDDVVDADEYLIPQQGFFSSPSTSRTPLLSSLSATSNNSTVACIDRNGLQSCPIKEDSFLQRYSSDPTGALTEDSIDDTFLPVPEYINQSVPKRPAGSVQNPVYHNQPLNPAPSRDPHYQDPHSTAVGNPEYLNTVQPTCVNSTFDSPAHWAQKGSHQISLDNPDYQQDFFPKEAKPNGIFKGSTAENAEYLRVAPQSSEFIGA
Description: as §1

[19] = target: MAP2K2 (MEK2) (Homo sapiens, UniProt P36507)
MAP2K2 (MEK2), sequence (P36507 whole entry, species assumed): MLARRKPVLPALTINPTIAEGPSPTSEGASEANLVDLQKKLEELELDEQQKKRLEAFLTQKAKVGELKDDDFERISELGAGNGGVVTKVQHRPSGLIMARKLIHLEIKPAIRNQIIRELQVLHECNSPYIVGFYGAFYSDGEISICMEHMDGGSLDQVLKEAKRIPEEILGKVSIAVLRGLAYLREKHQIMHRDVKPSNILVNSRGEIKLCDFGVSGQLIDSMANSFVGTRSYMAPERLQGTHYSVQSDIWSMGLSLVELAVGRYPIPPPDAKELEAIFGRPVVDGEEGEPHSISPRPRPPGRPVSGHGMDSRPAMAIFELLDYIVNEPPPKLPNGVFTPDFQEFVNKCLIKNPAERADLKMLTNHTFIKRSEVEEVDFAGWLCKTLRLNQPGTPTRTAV
Description: as §1

[20] = target: MAPK3 (ERK1) (Homo sapiens, UniProt P27361)
Description: as §1

[21] = target: PIK3CD/PIK3R1 (p110 delta/p85 alpha) (Homo sapiens, UniProt O00329)
Description: as §1

[22] = target: PAK7 (KIAA1264) (Homo sapiens, UniProt Q9P286)
PAK7 (KIAA1264), sequence (Q9P286 whole entry, species assumed): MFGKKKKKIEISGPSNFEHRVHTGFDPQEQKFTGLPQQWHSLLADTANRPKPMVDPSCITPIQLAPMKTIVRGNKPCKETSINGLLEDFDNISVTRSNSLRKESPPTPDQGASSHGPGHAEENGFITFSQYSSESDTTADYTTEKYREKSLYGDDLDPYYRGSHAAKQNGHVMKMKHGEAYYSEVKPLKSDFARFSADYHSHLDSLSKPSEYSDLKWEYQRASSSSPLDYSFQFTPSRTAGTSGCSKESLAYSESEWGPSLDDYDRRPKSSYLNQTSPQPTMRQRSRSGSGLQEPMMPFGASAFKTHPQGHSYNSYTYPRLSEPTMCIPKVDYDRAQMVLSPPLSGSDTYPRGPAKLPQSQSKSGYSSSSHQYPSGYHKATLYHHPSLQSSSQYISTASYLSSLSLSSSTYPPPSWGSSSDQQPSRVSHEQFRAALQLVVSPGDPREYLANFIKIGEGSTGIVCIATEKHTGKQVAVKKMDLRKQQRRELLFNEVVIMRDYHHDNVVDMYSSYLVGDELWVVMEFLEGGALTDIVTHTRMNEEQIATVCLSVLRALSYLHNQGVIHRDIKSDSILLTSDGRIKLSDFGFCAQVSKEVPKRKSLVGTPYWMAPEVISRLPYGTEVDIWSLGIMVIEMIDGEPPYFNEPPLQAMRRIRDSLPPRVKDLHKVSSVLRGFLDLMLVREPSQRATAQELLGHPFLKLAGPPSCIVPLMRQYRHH
Description: as §1

[23] = target: LIMK2 (Homo sapiens, UniProt P53671)
Description: as §1

[24] = target: PAK1 (Homo sapiens, UniProt Q13153)
Description: as §1

[25] = target: LIMK1 (Homo sapiens, UniProt P53667)
Description: as §1

[26] = target: IGF1R (Homo sapiens, UniProt P08069)
Description: as §1

[27] = target: CDK5/p25 (Homo sapiens, UniProt Q00535)
Description: as §1

[28] = target: CDC42 BPB (MRCKB) (Homo sapiens, UniProt Q9Y5S2)
Description: as §1

[29] = target: PDGFRA (PDGFR alpha) (Homo sapiens, UniProt P16234)
Description: as §1

[30] = target: JAK1 (Homo sapiens, UniProt P23458)
Description: as §1

[31] = target: SYK (Homo sapiens, UniProt P43405)
Description: as §1

[32] = target: JAK2 (Homo sapiens, UniProt O60674)
Description: as §1

[33] = target: SRC (Homo sapiens, UniProt P12931)
SRC, sequence (P12931 whole entry, species assumed): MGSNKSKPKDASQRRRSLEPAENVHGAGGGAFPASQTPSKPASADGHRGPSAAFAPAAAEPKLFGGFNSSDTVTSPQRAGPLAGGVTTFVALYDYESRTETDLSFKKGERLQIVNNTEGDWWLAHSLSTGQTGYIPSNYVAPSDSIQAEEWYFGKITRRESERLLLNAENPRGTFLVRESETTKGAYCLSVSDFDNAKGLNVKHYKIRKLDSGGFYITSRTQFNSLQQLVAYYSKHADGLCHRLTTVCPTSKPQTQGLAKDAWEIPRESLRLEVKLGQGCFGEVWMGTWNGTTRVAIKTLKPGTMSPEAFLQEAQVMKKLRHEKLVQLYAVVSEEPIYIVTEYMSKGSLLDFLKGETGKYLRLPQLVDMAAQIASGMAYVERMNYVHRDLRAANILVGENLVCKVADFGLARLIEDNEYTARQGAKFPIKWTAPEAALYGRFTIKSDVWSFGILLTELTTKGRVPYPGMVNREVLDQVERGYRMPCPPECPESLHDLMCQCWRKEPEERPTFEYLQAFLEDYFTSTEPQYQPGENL
Description: as §1

[34] = target: PAK6 (Homo sapiens, UniProt Q9NQU5)
PAK6, sequence (Q9NQU5 whole entry, species assumed): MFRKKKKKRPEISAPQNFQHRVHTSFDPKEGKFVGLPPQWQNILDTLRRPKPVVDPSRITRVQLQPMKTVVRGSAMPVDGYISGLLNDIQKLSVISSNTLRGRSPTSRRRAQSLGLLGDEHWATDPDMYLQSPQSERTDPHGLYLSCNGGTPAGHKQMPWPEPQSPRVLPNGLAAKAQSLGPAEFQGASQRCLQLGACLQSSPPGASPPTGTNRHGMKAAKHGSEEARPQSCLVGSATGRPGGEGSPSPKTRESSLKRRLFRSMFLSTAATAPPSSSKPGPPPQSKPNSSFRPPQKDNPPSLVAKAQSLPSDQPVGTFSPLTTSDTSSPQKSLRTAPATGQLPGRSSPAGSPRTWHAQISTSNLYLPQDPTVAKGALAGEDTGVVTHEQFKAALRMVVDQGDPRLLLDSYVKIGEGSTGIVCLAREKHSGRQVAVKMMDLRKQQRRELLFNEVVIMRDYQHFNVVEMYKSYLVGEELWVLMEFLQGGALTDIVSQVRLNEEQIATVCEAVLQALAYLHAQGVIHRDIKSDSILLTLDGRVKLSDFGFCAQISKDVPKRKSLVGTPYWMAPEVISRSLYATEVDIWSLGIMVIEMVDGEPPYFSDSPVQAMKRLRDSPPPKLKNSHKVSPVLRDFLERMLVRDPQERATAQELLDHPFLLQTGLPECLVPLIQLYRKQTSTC
Description: as §1

[35] = target: JAK3 (Homo sapiens, UniProt P52333)
JAK3, sequence (P52333 whole entry, species assumed): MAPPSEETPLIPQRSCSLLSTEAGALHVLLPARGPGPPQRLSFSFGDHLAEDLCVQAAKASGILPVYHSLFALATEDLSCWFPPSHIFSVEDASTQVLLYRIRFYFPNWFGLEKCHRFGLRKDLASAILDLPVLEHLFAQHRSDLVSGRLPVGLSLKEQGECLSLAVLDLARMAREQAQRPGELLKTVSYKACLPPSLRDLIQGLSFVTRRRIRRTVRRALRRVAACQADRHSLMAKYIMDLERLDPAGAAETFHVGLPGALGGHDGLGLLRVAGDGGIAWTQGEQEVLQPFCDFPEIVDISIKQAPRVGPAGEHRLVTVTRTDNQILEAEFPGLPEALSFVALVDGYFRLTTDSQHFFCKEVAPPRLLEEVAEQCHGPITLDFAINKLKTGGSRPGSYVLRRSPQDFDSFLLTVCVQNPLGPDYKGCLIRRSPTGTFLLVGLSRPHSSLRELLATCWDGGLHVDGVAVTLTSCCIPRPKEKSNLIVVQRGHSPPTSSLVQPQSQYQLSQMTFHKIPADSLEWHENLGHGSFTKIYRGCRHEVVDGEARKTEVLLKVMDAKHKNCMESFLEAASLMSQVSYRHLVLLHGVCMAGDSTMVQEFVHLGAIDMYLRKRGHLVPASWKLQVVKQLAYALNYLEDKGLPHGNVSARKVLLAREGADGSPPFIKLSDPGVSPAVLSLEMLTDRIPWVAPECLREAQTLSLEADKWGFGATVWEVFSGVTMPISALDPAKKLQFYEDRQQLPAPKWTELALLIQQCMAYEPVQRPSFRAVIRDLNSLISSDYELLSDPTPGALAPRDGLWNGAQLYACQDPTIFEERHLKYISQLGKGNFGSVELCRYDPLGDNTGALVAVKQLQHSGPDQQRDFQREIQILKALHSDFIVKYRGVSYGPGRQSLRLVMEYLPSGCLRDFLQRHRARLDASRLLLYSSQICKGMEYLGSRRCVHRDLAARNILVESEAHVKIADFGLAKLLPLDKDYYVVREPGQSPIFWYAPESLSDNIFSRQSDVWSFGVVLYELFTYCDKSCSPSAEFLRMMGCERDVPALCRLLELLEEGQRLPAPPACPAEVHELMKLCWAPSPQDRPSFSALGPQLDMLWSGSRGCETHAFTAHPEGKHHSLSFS
Description: as §1

inhibition percentage [1]: −4.2 percentage
inhibition percentage [2]: −8.5 percentage
inhibition percentage [3]: 0.6 percentage
inhibition percentage [4]: 11.5 percentage
inhibition percentage [5]: −15.3 percentage
inhibition percentage [6]: 2.8 percentage
inhibition percentage [7]: 7.1 percentage
inhibition percentage [8]: −2.3 percentage
inhibition percentage [9]: 10.9 percentage
inhibition percentage [10]: 0.9 percentage
inhibition percentage [11]: 11.0 percentage
inhibition percentage [12]: −1.3 percentage
inhibition percentage [13]: −6.7 percentage
inhibition percentage [14]: 6.4 percentage
inhibition percentage [15]: 0.4 percentage
inhibition percentage [16]: −10.2 percentage
inhibition percentage [17]: 1.2 percentage
inhibition percentage [18]: −10.4 percentage
inhibition percentage [19]: 13.3 percentage
inhibition percentage [20]: 6.7 percentage
inhibition percentage [21]: 9.0 percentage
inhibition percentage [22]: −11.5 percentage
inhibition percentage [23]: 0.4 percentage
inhibition percentage [24]: 22.7 percentage
inhibition percentage [25]: −1.1 percentage
inhibition percentage [26]: −7.4 percentage
inhibition percentage [27]: 1.0 percentage
inhibition percentage [28]: 3.3 percentage
inhibition percentage [29]: 15.1 percentage
inhibition percentage [30]: −3.3 percentage
inhibition percentage [31]: 7.0 percentage
inhibition percentage [32]: −11.6 percentage
inhibition percentage [33]: 8.7 percentage
inhibition percentage [34]: −0.6 percentage
inhibition percentage [35]: −16.3 percentage
SMILES: CCc1ccc(CN(C)C(=O)CCc2nnc(CCc3c[nH]c4ccccc34)o2)nc1 (racemic) [Compound 1]
